Read-outs that look alike come from different tables or passages of the source.
Test system: A. galli (intestinal roundworm of chicken) larval stage 3; O. dentatum (nodular worm of swine) larval stages 3 and 4
Assay: Activity against Ascaridia galli and Oesophagostomum dentatum larvae in vitro (minimum effective concentration)
Type: cell-based
Conditions: in vitro
[1] = one or more of A. galli L3, O. dentatum L3, L4, threshold 1 μM, read-out: MEC (minimum effective concentration) against one or more of the tested nematodes
[2] = two or more of A. galli L3, O. dentatum L3, L4, threshold 1 μM, read-out: MEC (minimum effective concentration) against two or more of the tested nematodes
[3] = one or more of A. galli L3, O. dentatum L3, L4, threshold 7 μM, read-out: MEC (minimum effective concentration) against one or more of the tested nematodes

Which minimal effective concentration [1] does the source give for O=C(CCCN1CCN(c2ccc(Cl)cc2)CC1)N1CCC(Nc2ccc(Cl)c(SC(F)(F)F)c2)CC1 [Example 359] here?
The minimal effective concentration was less than 1 µM.

For COc1ccc(N2CCN(CCC(=O)N3CCC(Nc4ccc([N+](=O)[O-])c(C(F)(F)F)c4)CC3)CC2)cc1OC [Example 368], which minimal effective concentration [2] is on record?
The minimal effective concentration was less than 1 µM.

For O=C(CCN1CCN(c2ccc(F)cc2F)CC1)N1CCC(Nc2ccc([N+](=O)[O-])c(C(F)(F)F)c2)CC1 [Example 370], which minimal effective concentration [3] is on record?
The minimal effective concentration was less than 7 µM.

For COc1cc(NC2CCN(C(=O)CCN3CCC(c4ccc(Oc5ccccc5)cc4)CC3)CC2)ccc1[N+](=O)[O-] [Example 376], which minimal effective concentration [1] is on record?
Its minimal effective concentration is less than 1 µM.

How did the minimal effective concentration [3] turn out when CCCc1ccc(C2CCN(CCC(=O)N3CCC(Nc4ccc([N+](=O)[O-])c(OC)c4)CC3)CC2)cc1 [Example 379] was run?
Its minimal effective concentration is less than 7 µM.

Which minimal effective concentration [1] does the source give for COc1cc(NC2CCN(C(=O)CCN3CCC(c4ccc(C(C)(C)C)cc4)CC3)CC2)ccc1[N+](=O)[O-] [Example 380] here?
The minimal effective concentration was less than 1 µM.

And the minimal effective concentration [3]?
The minimal effective concentration was less than 7 µM.

What does the source list for COc1cc(NC2CCN(C(=O)CCN3CCN(c4ccc(C(F)(F)F)cc4)CC3)CC2)ccc1[N+](=O)[O-] [Example 382]?
minimal effective concentration [3]: < 7 µM; minimal effective concentration [2]: < 1 µM

COc1cc(NC2CCN(C(=O)CCN3CCN(c4ccc(Cl)c(C(F)(F)F)c4)CC3)CC2)ccc1[N+](=O)[O-] [Example 384] was tested. Which minimal effective concentration [3] did it give?
Its minimal effective concentration is less than 7 µM.

How did the minimal effective concentration [3] turn out when CCCc1ccc(C2CCN(CCC(=O)N3CCC(Nc4ccc([N+](=O)[O-])c(OCC)c4)CC3)CC2)cc1 [Example 399] was run?
The minimal effective concentration was less than 7 µM.

How did the minimal effective concentration [1] turn out when CCOc1cc(NC2CCN(C(=O)CCN3CCC(c4ccc(C(C)(C)C)cc4)CC3)CC2)ccc1[N+](=O)[O-] [Example 400] was run?
Its minimal effective concentration is less than 1 µM.

And the minimal effective concentration [3]?
Its minimal effective concentration is less than 7 µM.

CCOc1cc(NC2CCN(C(=O)CCN3CCN(c4ccc(C(F)(F)F)cc4)CC3)CC2)ccc1[N+](=O)[O-] [Example 402] was tested. Which minimal effective concentration [1] did it give?
The minimal effective concentration was less than 1 µM.

And the minimal effective concentration [3]?
Its minimal effective concentration is less than 7 µM.

What about the minimal effective concentration [2] of the same compound?
Its minimal effective concentration is less than 1 µM.

Which minimal effective concentration [3] does the source give for CCOc1cc(NC2CCN(C(=O)CCN3CCN(c4ccc(Cl)cc4)CC3)CC2)ccc1[N+](=O)[O-] [Example 405] here?
The minimal effective concentration was less than 7 µM.

How did the minimal effective concentration [3] turn out when CCOc1cc(NC2CCN(C(=O)CCN3CCN(c4ccc(OCc5ccccc5)cc4)CC3)CC2)ccc1[N+](=O)[O-] [Example 407] was run?
Its minimal effective concentration is less than 7 µM.

With CCOc1cc(NC2CCN(C(=O)CCN3CCN(c4ccc(OC)cc4)CC3)CC2)ccc1[N+](=O)[O-] [Example 408] as the compound, how does the minimal effective concentration [3] read?
Its minimal effective concentration is less than 7 µM.

How did the minimal effective concentration [3] turn out when CCOc1cc(NC2CCN(C(=O)CCN3CCN(c4ccc(Cl)cc4F)CC3)CC2)ccc1[N+](=O)[O-] [Example 410] was run?
Its minimal effective concentration is less than 7 µM.

With O=C(CCN1CCN(c2ccc(Cl)cc2)CC1)N1CCC(Oc2ccc([N+](=O)[O-])c(C(F)(F)F)c2)CC1 [Example 421] as the compound, how does the minimal effective concentration [2] read?
The minimal effective concentration was less than 1 µM.

Which minimal effective concentration [2] does the source give for O=C(CCN1CCN(c2ccc(OCc3ccccc3)cc2)CC1)N1CCC(Oc2ccc([N+](=O)[O-])c(C(F)(F)F)c2)CC1 [Example 423] here?
Its minimal effective concentration is less than 1 µM.

How did the minimal effective concentration [2] turn out when COc1ccc(N2CCN(CCC(=O)N3CCC(Oc4ccc([N+](=O)[O-])c(C(F)(F)F)c4)CC3)CC2)cc1OC [Example 424] was run?
The minimal effective concentration was less than 1 µM.

O=C(CCN1CCN(c2ccc(Cl)cc2)CC1)N1CCC(Oc2ccc([N+](=O)[O-])c(C(F)(F)F)c2)CC1 [Example 433] was tested. Which minimal effective concentration [1] did it give?
Its minimal effective concentration is less than 1 µM.

COc1ccc(C2CCN(CCC(=O)N3CCC(Oc4ccc([N+](=O)[O-])c(C(F)(F)F)c4)CC3)CC2)cc1 [Example 435] was tested. Which minimal effective concentration [2] did it give?
Its minimal effective concentration is less than 1 µM.

How did the minimal effective concentration [2] turn out when O=C(CCN1CCC(c2ccc(F)c(F)c2)CC1)N1CCC(Oc2ccc([N+](=O)[O-])c(C(F)(F)F)c2)CC1 [Example 436] was run?
The minimal effective concentration was less than 1 µM.

O=C(CCN1CCC(c2ccc(C(F)(F)F)cc2)CC1)N1CCC(Oc2ccc([N+](=O)[O-])c(C(F)(F)F)c2)CC1 [Example 438] was tested. Which minimal effective concentration [2] did it give?
Its minimal effective concentration is less than 1 µM.

O=C(CCN1CCC(c2ccc(-c3ccccc3)cc2)CC1)N1CCC(Oc2ccc([N+](=O)[O-])c(C(F)(F)F)c2)CC1 [Example 442] was tested. Which minimal effective concentration [3] did it give?
The minimal effective concentration was less than 7 µM.

With Cn1nnc(-c2ccc(NC3CCN(C(=O)CCN4CCN(c5ccc(Cl)cc5)CC4)CC3)cc2)n1 [Example 445] as the compound, how does the minimal effective concentration [1] read?
The minimal effective concentration was less than 1 µM.

And the minimal effective concentration [3]?
The minimal effective concentration was less than 7 µM.

And the minimal effective concentration [2]?
The minimal effective concentration was less than 1 µM.

How did the minimal effective concentration [3] turn out when CC(C)COc1cc(NC2CCN(C(=O)CCN3CCC(c4ccc(C(C)(C)C)cc4)CC3)CC2)ccc1[N+](=O)[O-] [Example 457] was run?
The minimal effective concentration was less than 7 µM.

For CC(C)COc1cc(NC2CCN(C(=O)CCN3CCN(c4ccc(C(F)(F)F)cc4)CC3)CC2)ccc1[N+](=O)[O-] [Example 459], which minimal effective concentration [1] is on record?
Its minimal effective concentration is less than 1 µM.

What about the minimal effective concentration [3] of the same compound?
Its minimal effective concentration is less than 7 µM.

Which minimal effective concentration [3] does the source give for CC(C)COc1cc(NC2CCN(C(=O)CCN3CCN(c4ccc(F)cc4F)CC3)CC2)ccc1[N+](=O)[O-] [Example 469] here?
Its minimal effective concentration is less than 7 µM.

For COc1cc(OC2CCN(C(=O)CCN3CCN(c4ccc(Cl)cc4F)CC3)CC2)ccc1[N+](=O)[O-] [Example 476], which minimal effective concentration [3] is on record?
The minimal effective concentration was less than 7 µM.

COc1cc(OC2CCN(C(=O)CCN3CCN(c4ccc(F)cc4F)CC3)CC2)ccc1[N+](=O)[O-] [Example 477] was tested. Which minimal effective concentration [3] did it give?
The minimal effective concentration was less than 7 µM.

With COc1cc(OC2CCN(C(=O)CCN3CCN(c4ccc(C(F)(F)F)cc4)CC3)CC2)ccc1[N+](=O)[O-] [Example 479] as the compound, how does the minimal effective concentration [3] read?
Its minimal effective concentration is less than 7 µM.

COc1ccc(C2CCN(CCC(=O)N3CCC(Oc4ccc([N+](=O)[O-])c(OC)c4)CC3)CC2)cc1 [Example 484] was tested. Which minimal effective concentration [1] did it give?
The minimal effective concentration was less than 1 µM.

How did the minimal effective concentration [1] turn out when CCCc1ccc(C2CCN(CCC(=O)N3CCC(Oc4ccc([N+](=O)[O-])c(OC)c4)CC3)CC2)cc1 [Example 489] was run?
Its minimal effective concentration is less than 1 µM.

With CCOc1cc(OC2CCN(C(=O)CCN3CCN(c4ccc(OC)c(OC)c4)CC3)CC2)ccc1[N+](=O)[O-] [Example 495] as the compound, how does the minimal effective concentration [1] read?
The minimal effective concentration was less than 1 µM.

What about the minimal effective concentration [3] of the same compound?
The minimal effective concentration was less than 7 µM.

And the minimal effective concentration [2]?
The minimal effective concentration was less than 1 µM.

How did the minimal effective concentration [3] turn out when CCOc1cc(OC2CCN(C(=O)CCN3CCN(c4ccc(OCc5ccc(C(F)(F)F)cc5)cc4)CC3)CC2)ccc1[N+](=O)[O-] [Example 497] was run?
Its minimal effective concentration is less than 7 µM.

How did the minimal effective concentration [3] turn out when CCOc1cc(OC2CCN(C(=O)CCN3CCN(c4ccc(Cl)cc4F)CC3)CC2)ccc1[N+](=O)[O-] [Example 498] was run?
The minimal effective concentration was less than 7 µM.

How did the minimal effective concentration [1] turn out when CCOc1cc(OC2CCN(C(=O)CCN3CCN(c4ccc(C(C)(C)C)cc4)CC3)CC2)ccc1[N+](=O)[O-] [Example 502] was run?
The minimal effective concentration was less than 1 µM.

And the minimal effective concentration [3]?
Its minimal effective concentration is less than 7 µM.

With CCOc1cc(OC2CCN(C(=O)CCN3CCC(c4ccc(C(C)(C)C)cc4)CC3)CC2)ccc1[N+](=O)[O-] [Example 509] as the compound, how does the minimal effective concentration [1] read?
Its minimal effective concentration is less than 1 µM.

For CC(C)COc1cc(OC2CCN(C(=O)CCN3CCN(c4ccc(Cl)cc4)CC3)CC2)ccc1[N+](=O)[O-] [Example 512], which minimal effective concentration [3] is on record?
Its minimal effective concentration is less than 7 µM.

Which minimal effective concentration [3] does the source give for COc1ccc(N2CCN(CCC(=O)N3CCC(Oc4ccc([N+](=O)[O-])c(OCC(C)C)c4)CC3)CC2)cc1OC [Example 515] here?
Its minimal effective concentration is less than 7 µM.

With COc1ccc(N2CCN(CCC(=O)N3CCC(Oc4ccc([N+](=O)[O-])c(OCC(C)C)c4)CC3)CC2)cc1 [Example 516] as the compound, how does the minimal effective concentration [1] read?
Its minimal effective concentration is less than 1 µM.

And the minimal effective concentration [3]?
The minimal effective concentration was less than 7 µM.

With CC(C)COc1cc(OC2CCN(C(=O)CCN3CCN(c4ccc(Cl)cc4F)CC3)CC2)ccc1[N+](=O)[O-] [Example 519] as the compound, how does the minimal effective concentration [3] read?
The minimal effective concentration was less than 7 µM.

CC(C)COc1cc(OC2CCN(C(=O)CCN3CCN(c4ccc(F)cc4F)CC3)CC2)ccc1[N+](=O)[O-] [Example 520] was tested. Which minimal effective concentration [3] did it give?
The minimal effective concentration was less than 7 µM.

— patent US9096524B2, “Anthelmintic agents and their use” (Intervet International B.V., priority 2009, dated 2015)
